Source: ChEMBL document CHEMBL4308841, “Synthesis, in vitro antiproliferative activity, and kinase inhibitory effects of pyrazole-containing diarylureas and diarylamides” (Eur J Med Chem, 2018)

Tests used:
SK-MEL-28 = assay: Growth inhibition of human SK-MEL-28 cells incubated for 48 hrs by sulforhodamine B assay; format: functional, cell-based; details: SK-MEL-28, 48 h
MDA-MB-231 = assay: Growth inhibition of human MDA-MB-231 cells incubated for 48 hrs by sulforhodamine B assay; format: functional, cell-based; details: MDA-MB-231, 48 h
Hs-578T [1] = assay: Growth inhibition of human Hs578T cells assessed as cell growth at 1 uM incubated for 48 hrs by sulforhodamine B assay relative to control; format: functional; details: read-out: Activity
HT-29 = assay: Growth inhibition of human HT-29 cells assessed as cell growth at 0.01 uM incubated for 48 hrs by sulforhodamine B assay relative to control; format: functional; details: HT-29, 48 h, read-out: Activity
SF-295 = assay: Growth inhibition of human SF295 cells assessed as cell growth at 100 uM incubated for 48 hrs by sulforhodamine B assay relative to control; format: functional; details: SF-295, 48 h, read-out: Activity
NCI-H322M = assay: Growth inhibition of human NCI-H322M cells assessed as cell growth at 100 uM incubated for 48 hrs by sulforhodamine B assay relative to control; format: functional; details: read-out: Activity
UACC-62 = assay: Growth inhibition of human UACC62 cells assessed as cell growth at 1 uM incubated for 48 hrs by sulforhodamine B assay relative to control; format: functional; details: UACC-62, 48 h, read-out: Activity
NCI-H522 = assay: Growth inhibition of human NCI-H522 cells assessed as cell growth at 1 uM incubated for 48 hrs by sulforhodamine B assay relative to control; format: functional; details: NCI-H522, 48 h, read-out: Activity
SR = assay: Growth inhibition of human SR cells assessed as cell growth at 1 uM incubated for 48 hrs by sulforhodamine B assay relative to control; format: functional; details: read-out: Activity
HOP-62 = assay: Growth inhibition of human HOP62 cells incubated for 48 hrs by sulforhodamine B assay; format: functional, cell-based; details: HOP-62, 48 h
OVCAR-4 = assay: Growth inhibition of human OVCAR4 cells incubated for 48 hrs by sulforhodamine B assay; format: functional, cell-based; details: OVCAR-4, 48 h
Hs-578T [2] = assay: Growth inhibition of human Hs578T cells assessed as cell growth at 0.1 uM incubated for 48 hrs by sulforhodamine B assay relative to control; format: functional; details: read-out: Activity
SNB-19 = assay: Growth inhibition of human SNB19 cells incubated for 48 hrs by sulforhodamine B assay; format: functional, cell-based; details: SNB-19, 48 h
SW-620 = assay: Growth inhibition of human SW620 cells assessed as cell growth at 100 uM incubated for 48 hrs by sulforhodamine B assay relative to control; format: functional; details: SW-620, 48 h, read-out: Activity
T47D = assay: Growth inhibition of human T47D cells assessed as cell growth at 0.01 uM incubated for 48 hrs by sulforhodamine B assay relative to control; format: functional; details: read-out: Activity
A498 [3] = assay: Growth inhibition of human A498 cells incubated for 48 hrs by sulforhodamine B assay; format: functional, cell-based; details: A498, 48 h
HCC 2998 = assay: Growth inhibition of human HCC2998 cells assessed as cell growth at 0.01 uM incubated for 48 hrs by sulforhodamine B assay relative to control; format: functional; details: HCC 2998, 48 h, read-out: Activity
Malme-3M [4] = assay: Growth inhibition of human MALME-3M cells assessed as cell growth at 0.01 uM incubated for 48 hrs by sulforhodamine B assay relative to control; format: functional; details: read-out: Activity
HCT-15 = assay: Growth inhibition of human HCT15 cells assessed as cell growth at 0.1 uM incubated for 48 hrs by sulforhodamine B assay relative to control; format: functional; details: HCT-15, 48 h, read-out: Activity
NCI-H460 [5] = assay: Growth inhibition of human NCI-H460 cells assessed as cell growth at 0.1 uM incubated for 48 hrs by sulforhodamine B assay relative to control; format: functional; details: NCI-H460, 48 h, read-out: Activity
OVCAR-8 = assay: Growth inhibition of human OVCAR8 cells assessed as cell growth at 0.01 uM incubated for 48 hrs by sulforhodamine B assay relative to control; format: functional; details: OVCAR-8, 48 h, read-out: Activity
A498 [6] = assay: Growth inhibition of human A498 cells assessed as cell growth at 1 uM incubated for 48 hrs by sulforhodamine B assay relative to control; format: functional; details: A498, 48 h, read-out: Activity
Malme-3M [7] = assay: Growth inhibition of human MALME-3M cells assessed as cell growth at 0.1 uM incubated for 48 hrs by sulforhodamine B assay relative to control; format: functional; details: read-out: Activity
LOX IMVI = assay: Growth inhibition of human LOXIMVI cells assessed as cell growth at 100 uM incubated for 48 hrs by sulforhodamine B assay relative to control; format: functional; details: read-out: Activity
M14 = assay: Growth inhibition of human M14 cells incubated for 48 hrs by sulforhodamine B assay; format: functional, cell-based; details: M14, 48 h
BT-549 = assay: Growth inhibition of human BT549 cells assessed as cell growth at 1 uM incubated for 48 hrs by sulforhodamine B assay relative to control; format: functional; details: BT-549, 48 h, read-out: Activity
NCI-H460 [8] = assay: Growth inhibition of human NCI-H460 cells assessed as cell growth at 0.01 uM incubated for 48 hrs by sulforhodamine B assay relative to control; format: functional; details: NCI-H460, 48 h, read-out: Activity
MCF7 = assay: Growth inhibition of human MCF7 cells incubated for 48 hrs by sulforhodamine B assay; format: functional, cell-based; details: MCF7, 48 h
[9] = read-out: LC50 (the source's name)
[10] = read-out: pLC50 (the source's name) (converted)

COc1cc(Cl)cc(-c2nn(-c3cccc(NC(=O)c4cccc(C(F)(F)F)c4)c3)cc2-c2ccncc2)c1
GI50 (SK-MEL-28; read-out: GI50): > 100 µM
CC50 (SK-MEL-28; [9]): > 100 µM
TGI (SK-MEL-28; read-out: TGI): > 100 µM
GI50 (SK-MEL-28; read-out: pGI50 (converted)): > 100 µM
CC50 (SK-MEL-28; [10]): > 100 µM
TGI (SK-MEL-28; read-out: pTGI (converted)): > 100 µM
GI50 (MDA-MB-231; read-out: GI50): 1.38 µM
CC50 (MDA-MB-231; [9]): > 100 µM
TGI (MDA-MB-231; read-out: TGI): 99.7 µM
GI50 (MDA-MB-231; read-out: pGI50 (converted)): 1.38 µM
CC50 (MDA-MB-231; [10]): > 100 µM
TGI (MDA-MB-231; read-out: pTGI (converted)): 10 µM
growth at 1 µM (Hs-578T [1]): 52%
growth at 0.01 µM (HT-29): 90%
growth at 100 µM (SF-295): 35%
growth at 100 µM (NCI-H322M): 75%
growth at 1 µM (UACC-62): 56%
growth at 1 µM (NCI-H522): 54%
growth at 1 µM (SR): 58%
GI50 (HOP-62; read-out: GI50): > 100 µM
CC50 (HOP-62; [9]): > 100 µM
TGI (HOP-62; read-out: TGI): > 100 µM
GI50 (HOP-62; read-out: pGI50 (converted)): > 100 µM
CC50 (HOP-62; [10]): > 100 µM
TGI (HOP-62; read-out: pTGI (converted)): > 100 µM
GI50 (OVCAR-4; read-out: GI50): > 100 µM
CC50 (OVCAR-4; [9]): > 100 µM
TGI (OVCAR-4; read-out: TGI): > 100 µM
GI50 (OVCAR-4; read-out: pGI50 (converted)): > 100 µM
CC50 (OVCAR-4; [10]): > 100 µM
TGI (OVCAR-4; read-out: pTGI (converted)): > 100 µM
growth at 0.1 µM (Hs-578T [2]): 89%
GI50 (SNB-19; read-out: GI50): > 100 µM
CC50 (SNB-19; [9]): > 100 µM
TGI (SNB-19; read-out: TGI): > 100 µM
GI50 (SNB-19; read-out: pGI50 (converted)): > 100 µM
CC50 (SNB-19; [10]): > 100 µM
TGI (SNB-19; read-out: pTGI (converted)): > 100 µM
growth at 100 µM (SW-620): 57%
growth at 0.01 µM (T47D): 99%
CC50 (A498 [3]; [9]): > 100 µM
TGI (A498 [3]; read-out: TGI): > 100 µM
CC50 (A498 [3]; [10]): > 100 µM
TGI (A498 [3]; read-out: pTGI (converted)): > 100 µM
growth at 0.01 µM (HCC 2998): 108%
growth at 0.01 µM (Malme-3M [4]): 58%
growth at 0.1 µM (HCT-15): 91%
growth at 0.1 µM (NCI-H460 [5]): 99%
growth at 0.01 µM (OVCAR-8): 103%
growth at 1 µM (A498 [6]): 51%
growth at 0.1 µM (Malme-3M [7]): 90%
growth at 100 µM (LOX IMVI): 41%
GI50 (M14; read-out: GI50): 0.09 µM
CC50 (M14; [9]): > 100 µM
TGI (M14; read-out: TGI): > 100 µM
GI50 (M14; read-out: pGI50 (converted)): 6.03 µM
CC50 (M14; [10]): > 100 µM
TGI (M14; read-out: pTGI (converted)): > 100 µM
growth at 1 µM (BT-549): 94%
growth at 0.01 µM (NCI-H460 [8]): 101%
GI50 (MCF7; read-out: GI50): 4.17 µM
LC50 (MCF7; read-out: LC50): > 100 µM
TGI (MCF7; read-out: TGI): > 100 µM
GI50 (MCF7; read-out: pGI50 (converted)): 4.17 µM
LC50 (MCF7; read-out: pLC50 (converted)): > 100 µM
TGI (MCF7; read-out: pTGI (converted)): > 100 µM
